Values joined by “and” are separate entries in the source; they are usually repeats but may differ in a detail not shown here. Identical values can stand only once.
How the values were obtained:
CHO cells [1] = assay: Evaluation of cytotoxicity (alteration of cell shape); format: cell-based, hamster; details: 10 μM, serum-free medium, cultured one day
Procedure: As to the compound 9 synthesized in the above, the cytotoxicity was evaluated as the effect on the change in cell morphology.
As the cultured cells, cells obtained by the culture of CHO cells, which is a cell strain derived from the ovary of hamster, in a Ham's F12 medium were used.
Firstly, the CHO cells were seeded into each well of a 24-well plate at 2×10^4 cells/well, and cultured in a Ham's F12(+) medium at 37° C. for one day. After that, in order to eliminate the influence of ceramide, sphingosine, and the like, medium exchange to a medium in which 0.1% BSA and 10 mM HEPES are added into a Ham's F12(−) medium which is a serum-free medium was performed, and in the presence of the compound 9 (10 μM), the culture was further performed for one day. Further, as a negative control, the same experiment was performed with the a NBD-C6-ceramide described in Non Patent Literature 1.

CHO cells [2] = assay: Evaluation of cytotoxicity (changes in cell number); format: cell-based, hamster; details: 10 μM; for cell number after addition (24 hours) relative to before addition: before addition = 100%, no additives 170 ± 51%; for cell number after addition (24 hours): serum-free medium, before addition 12,600 cells/well
Procedure: Subsequently, as to the compound 9 synthesized in the above, the cytotoxicity was evaluated as the effect on the change in cell number.
Firstly, the CHO cells were seeded into each well of a 24-well plate at 1×10^4 cells/well, and cultured in a Ham's F12(+) medium at 37° C. for one day. The cell number one day after the culture was 1.26×10^4 cells/well. After that, medium exchange to a medium in which 0.1% BSA and 10 mM HEPES are added into a Ham's F12(−) medium which is a serum-free medium was performed, and in the presence of the compound 9 (10 μM), the culture was further performed for one day. Further, as a negative control, the same experiment was performed with the NBD-C6-ceramide described in Non Patent Literature 1. In addition, the same experiment was also performed for the case of no additives.

CHO cells [3] = assay: Evaluation of incorporation into cell (fluorescence of organic layer extract); format: cell-based, hamster; details: 10 μM, 1, 2, 6, 24 or 48 hours at 37° C.
Procedure: Firstly, the CHO cells were seeded into each well of a 24-well plate at 2×10^4 cells/well, and cultured in a Ham's F12(+) medium at 37° C. for one day. After that, medium exchange to a medium in which 0.1% BSA and 10 mM HEPES are added into a Ham's F12(−) medium which is a serum-free medium was performed, and the culture was further performed at 37° C. for 18 hours, then into which the compound 9 (10 μM) was added. After the addition, the resultant mixture was cultured at 37° C. for 1, 2, 6, 24, or 48 hours, and subjected to an assay. Further, as a negative control, the same experiment was performed with the NBD-C6-ceramide. […] Therefore, in this experiment, firstly, the cells were cultured for 18 hours in a serum-free medium, and the incorporation and metabolism of a serum-derived compound were decreased, then the test compound was added, and thus an experimental system was constructed such that the pure incorporation and metabolism of the test compound itself can be measured.
As the assay, firstly, the incorporation of the ceramide derivative (compound 9) into a cell was evaluated. […]
Subsequently, the obtained organic layer sample was added into a 96-well plate, and the fluorescence emission of the ceramide derivative was detected by using an image analyzer (LAS1000, manufactured by FUJIFILM Corporation). […]

CHO cells [4] = assay: Evaluation of intracellular metabolism by TLC; format: in vitro ADME, hamster; details: 10 μM
Procedure: Firstly, the CHO cells were seeded into each well of a 24-well plate at 2×10^4 cells/well, and cultured in a Ham's F12(+) medium at 37° C. for one day. After that, medium exchange to a medium in which 0.1% BSA and 10 mM HEPES are added into a Ham's F12(−) medium which is a serum-free medium was performed, and the culture was further performed at 37° C. for 18 hours, then into which the compound 9 (10 μM) was added. After the addition, the resultant mixture was cultured at 37° C. for 1, 2, 6, 24, or 48 hours, and subjected to an assay. Further, as a negative control, the same experiment was performed with the NBD-C6-ceramide. Herein, ceramide, sphingosine, and the like are contained in the serum, and the incorporation and metabolism of these substances are constantly in progress. Therefore, in this experiment, firstly, the cells were cultured for 18 hours in a serum-free medium, and the incorporation and metabolism of a serum-derived compound were decreased, then the test compound was added, and thus an experimental system was constructed such that the pure incorporation and metabolism of the test compound itself can be measured.
As the assay, firstly, the incorporation of the ceramide derivative (compound 9) into a cell was evaluated. Specifically, cells that had been cultured for a predetermined time in the presence of the compound were washed twice with HBSS (Hank's Balanced Salt Solution: pH 7.4) containing 0.1% BSA and 10 mM HEPES, and then using a cell scraper and 250 μL of HBSS, the cells were detached from the wells. Into the cell extract thus obtained, 500 μL of chloroform, 500 μL of methanol, and 250 μL of water were added, and the cell extract was prepared in two-layer form of an organic layer and an aqueous layer. Further, since the ceramide derivative and other major sphingolipids are compounds that migrate to the organic layer, the cell extract in two-layer form was centrifuged for 10 minutes under the conditions of 3000 rpm at 4° C., and thus only the organic layer was isolated.
On the other hand, as another assay, the metabolism of the ceramide derivative (compound 9) was evaluated. Specifically, 20 μL of the organic layer sample thus obtained above was spotted on a TLC plate, and developed with a development solvent (1-butanol:acetic acid:water=3:1:1), then the intracellular metabolism of the sample was evaluated by using an image analyzer (LAS1000).
Further, by using a free software (Image J), the abundance of each metabolite was converted into a numerical value. The results are shown in E) of FIG. 2 (NBD-C6-ceramide (negative control)), and F) of FIG. 2 (compound 9). In the meantime, the numerical value of each amount of C16-glucosylceramide-NBD-like molecules and C16-sphingomyelin-NBD-like molecules was determined from the mobility in the TLC.

[5] = system: Golgi apparatus in CHO cells; assay: Evaluation of localization to the Golgi apparatus (co-staining with BODIPY-TR-Ceramide, confocal laser scanning microscope); format: cell-based, hamster; details: 1 μM, 1.5 hours, then BODIPY-TR-Ceramide 5 μM 30 minutes
Procedure: It was evaluated whether or not the localization of the compound 9 into a cell is really due to the localization to the Golgi apparatus. Specifically, BODIPY-TR-Ceramide (Cat D-7540 Red manufactured by Molecular Probes), which is another Golgi marker known to be difficult to be metabolized, was added together with the compound 9 into a cell, and the observation was performed by using a confocal laser scanning microscope.
Firstly, the CHO cells were seeded into each well of a 24-well plate at 0.5×10^4 cells/well, and cultured in a Ham's F12(+) medium at 37° C. for two days. […] After completion of the culture, the cells were washed twice in the same manner as described above, and then the fluorescence emission from the cells was observed. […] In addition, the time course of the cell culture and compound addition is the one recommended by data sheets or previous reports as the time course in which BODIPY-TR-Ceramide can be detected more sensitively. The observation was performed by using a confocal laser scanning microscope, and the measurement of the fluorescence emission from the BODIPY-TR-Ceramide was performed at the maximum excitation wavelength of 598 nm, and the maximum fluorescence wavelength of 617 nm, to measure the “red”. […]

[6] = system: Golgi apparatus in CHO cells; assay: Changes in localization to the Golgi apparatus over time (fluorescence observation); format: cell-based, hamster; details: 1 μM, 1, 2, 6, 24 or 48 hours at 37° C.
Procedure: Subsequently, it was evaluated whether or not the localization of the compound 9 in the Golgi apparatus can be maintained over a long period of time. Specifically, by the method similar to that described above, the compound 9 or the NBD-C6-ceramide (negative control) (each of both is in 1 μM) was added, then the resultant mixture was cultured at 37° C. for 1, 2, 6, 24, or 48 hours, and the fluorescence (green) derived from the compound was observed.
The upper part of FIG. 4 is a set of pictures showing the results of the observation for the NBD-C6-ceramide (negative control), the pictures were taken by using a photomultiplier tube PMT:430. The middle part of FIG. 4 is a set of pictures showing the results of the observation for the compound 9, the pictures were taken by using a photomultiplier tube PMT:430. The lower part of FIG. 4 is a set of pictures showing the results of the observation for the compound. 9, the pictures were taken by using a photomultiplier tube PMT:500. At this point, the expression of “430” or “500” means detection sensitivity (size of the energy required to detect the emission derived from a compound), and the smaller the value, the higher the sensitivity. […]

cell = assay: Staining of the Golgi apparatus with conventional probe (investigation by the present inventors); format: cell-based; details: cytotoxic effect
Procedure: A NBD-C6-ceramide has a cytotoxic effect, therefore, kills a cell itself within 24 hours from the incorporation into the cell, and thus the cell observation cannot be continued anymore. Further, an endogenous ceramide is metabolized into a glucosylceramide by being added with an oligosaccharide in the Golgi apparatus, or metabolized into sphingomyelin by receiving the transfer of phosphocholine from phosphatidylcholine, as a result, the metabolite is sent to cell membrane and becomes a component of the cell membrane. The NBD-C6-ceramide is, in the same manner as in the endogenous ceramide, metabolized to glucosylceramide or sphingomyelin in the Golgi apparatus, and the metabolite is transported to cell membrane from the Golgi in a few hours, therefore, the continuous staining is also difficult in this respect.

[7] = system: Golgi apparatus in CHO cells; details: 30 minutes after addition, or two hours later when metabolized; J Cell Biol. 1985; cited from earlier work

Row | SMILES | alteration of cell shape (roundation) (CHO cells [1]) | cell number after addition (24 hours) relative to before addition (CHO cells [2]) | cell number after addition (24 hours) (CHO cells [2]) | amount incorporated into a cell with the lapse of time (CHO cells [3]) | fraction that became a metabolite in 6 hours (CHO cells [4]) | amount of compound after metabolism in 24 hours (CHO cells [4]; 24 hours) | fraction metabolized in 48 hours (CHO cells [4]; 48 hours) | co-localization with Golgi marker BODIPY-TR-Ceramide [5] | fluorescence (emission) intensity in cells with the lapse of time [6] | time from incorporation into the cell until the cell is killed (cell) | retention in the Golgi apparatus after addition into a cell [7] | cell number after addition (24 hours) relative to before addition (CHO cells [2]; listed as Acetyl-C16-ceramide-NBD) | fraction remaining as it is without being metabolized in 48 hours (CHO cells [4]; 48 hours)
1 | CCCCCCCCCCCCC/C=C/[C@@H](O)[C@H](CO)NC(=O)CCCCCNc1ccc([N+](=O)[O-])c2nonc12 [NBD-C6-ceramide] | the alteration of cell shapge (roundation) was observed | 77% and 77 ± 2% | 9,690 ± 260 cells/well | decreased with the lapse of time | 30% | decreased by half | ~90% | co-localized with the BODIPY-TR-Ceramide | attenuated with the lapse of time | ≤ 24 h | remains in the Golgi apparatus | – | –
2 | CCCCCCCCCCCCCCCC(=O)N[C@@H](COC(C)=O)[C@H](O)/C=C/CCCCCCCCCNc1ccc([N+](=O)[O-])c2nonc12 [compound 9, (2S,3R)-(E)-3-hydroxy-14-((7-nitrobenzo[c][1,2,5]oxadiazole-4-yl)amino)-2-palmitamide tetradec-4-en-1-yl acetate] | the roundation was not observed | 159% | 20,000 ± 4100 cells/well | increased with the lapse of time | around 10% | – | – | co-localized with the BODIPY-TR-Ceramide | gradually increased with the lapse of time | – | – | 159 ± 33% | ≥ 70%
